Patent US6465654B2, “Process for preparing 1-substituted, 2-substituted 1H-imidazo[4, 5-c]quinoline-4-amines” (3M Innovative Properties Company, priority 1991, dated 2002)

Assays:
interferon-α [1] = experiment: Interferon-α induction in human cells, PBM; format: cell-based; details: 24 hours
interferon [2] = experiment: Interferon induction in mice; format: in vivo; details: mouse serum
How it was run: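 Interferon titres expressed as α/β reference units/mL relative to mouse MU-1-IF standard, "<" denoting undetectable. Pooled serum came from mouse groups bled at 1, 2 or 4 h, frozen at −70° C, analysed like human-cell samples.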

interferon-α [3] = experiment: Interferon-α induction in human cells, diluted whole blood; format: cell-based; details: 24 hours
interferon [4] = experiment: Interferon induction in guinea pigs (serum interferon titer); format: in vivo; details: guinea pig serum 24 hours after initial oral dose
Excerpt: Female Hartley guinea pigs weighing 200 to 250 g are anesthetized with methoxyflurane (available under the […] from Pitman-Moore, Inc., Washington Crossing, N.J.), after which the vaginal area is swabbed with a dry cotton swab. The guinea pigs are then infected intravaginally with a cotton swab saturated with Herpes simplex virus Type II strain 333 (1×10^5 plaque forming units/mL). Guinea pigs are assigned to groups of 7 animals; one group for each treatment and one to serve as a control (vehicle treated). The compounds of the invention are formulated in water containing 5% Tween 80 (a polyoxyethylene sorbitan monooleate available from Aldrich Chemical Company, Inc., Milwaukee, Wis.). The, guinea pigs are treated orally once daily for four consecutive days starting 24 hours after infection. Twenty-four hours after the initial dose of test compound has been administered, blood is obtained from 3 guinea pigs from each treatment group by cardiac puncture of methoxyflurane anesthetized animals. Blood is pooled and allowed to clot at room temperature. After low speed centrifugation, serum is collected and stored at -70° C. until analysis. Interferon levels in the guinea pig serum are determined in a standard microtiter assay using transformed guinea pig cells (ATCC CRL 1405). The interferon assay is done in 96 well microtiter plates. Confluent monolayers of transformed guinea pig cells are treated with dilutions of guinea pig serum made with medium 199 (GIBCO, Grand Island, N.Y.). The cell and serum dilutions are incubated at 37° C. overnight. The following day, the medium and serum are removed and about 10 plaque forming units of Mengovirus are added to each well. Controls consist of wells that receive no guinea pig serum (virus positive control) and wells that receive no virus (virus negative control). Cells and virus are incubated for 2 to 3 days at 37° C. before quantifying for viral cytopathic effect. The viral cytopathic effect is quantified by staining with 0.05% crystal violet followed by spectrophotometric absorbance measurements. The titer of interferon in serum is expressed as units/mL and is the reciprocal of the highest dilution that protects cells from virus.

[5] = tested on: Herpes simplex virus Type II strain 333; experiment: Antiviral activity in guinea pigs infected with Herpes simplex virus Type II (lesion inhibition); format: in vivo; details: oral once daily for four days
Excerpt: Female Hartley guinea pigs weighing 200 to 250 g are anesthetized with methoxyflurane (available under the […] from Pitman-Moore, Inc., Washington Crossing, N.J.), after which the vaginal area is swabbed with a dry cotton swab. The guinea pigs are then infected intravaginally with a cotton swab saturated with Herpes simplex virus Type II strain 333 (1×10^5 plaque forming units/mL). Guinea pigs are assigned to groups of 7 animals; one group for each treatment and one to serve as a control (vehicle treated). The compounds of the invention are formulated in water containing 5% Tween 80 (a polyoxyethylene sorbitan monooleate available from Aldrich Chemical Company, Inc., Milwaukee, Wis.). The, guinea pigs are treated orally once daily for four consecutive days starting 24 hours after infection. Antiviral activity is evaluated by comparing lesion development in compound-treated versus vehicle-treated guinea pigs. […] The maximum lesion score of each guinea pig is used to calculate the percentage lesion inhibition. The percentage lesion inhibition is calculated as follows: […]

MC-26 colon tumor cells [6] = experiment: Inhibition of MC-26 tumors in mice, 14 day lung colony count; format: in vivo; details: lung colonies day 14, 4×10^4 MC-26 cells i.v., oral 30 mg/kg on days 3-7 and 10-14; control 385 ± 31
Description: The mice are sacrificed 14 days later. […] Five mice are in each treatment group and comparisons are made to controls. […] The mice in the control groups were dosed orally with saline (10 mL/kg) on days 3, 4, 5, 6, and 7, and with water (10 mL/kg) on days 10, 11, 12, 13, and 14.

[7] = tested on: vesicular stomatitis virus (VSV); experiment: microbe, parasite or virus in culture; format: cell-based; details: Vesicular stomatitis virus, read-out: VSV Yield Inhibition
MC-26 colon tumor cells [8] = experiment: Inhibition of MC-26 tumors in mice, 21 day lung colony count; details: lung colonies day 21, 1×10^4 MC-26 cells i.v., control 55 ± 11
Description: On day 0 female CDF1 mice are inoculated i.v. with 1×10^4 MC-26 colon tumor cells in a volume of 0.2 mL of saline per mouse. The mice are sacrificed 21 days later. The lungs are removed and fixed with WARF then allowed to stand for 30 minutes. The lobes are separated and the colonies are counted. Ten mice are in each treatment group and in the control group.
The mice in the control group were dosed orally with water (10 mL/Kg) on days 0, 1, 2, 3 and 4.

Row | Compound | Interferon-α induction (interferon-α [1]; dose concentration 0.01 μg/mL) | Interferon-α induction (interferon-α [1]; dose concentration 0.05 μg/mL) | Interferon-α induction (interferon-α [1]; dose concentration 0.10 μg/mL) | Interferon-α induction (interferon-α [1]; dose concentration 0.50 μg/mL) | Interferon-α induction (interferon-α [1]; dose concentration 1.0 μg/mL) | Interferon-α induction (interferon-α [1]; dose concentration 5.0 μg/mL) | Interferon induction in mice (interferon [2]; oral 1 mg/kg, 1 hr) [Reference Units/mL] | Interferon induction in mice (interferon [2]; oral 1 mg/kg, 2 hr) [Reference Units/mL] | Interferon induction in mice (interferon [2]; oral 1 mg/kg, 4 hr) [Reference Units/mL] | Interferon induction in mice (interferon [2]; oral 3 mg/kg, 1 hr) [Reference Units/mL] | Interferon induction in mice (interferon [2]; oral 3 mg/kg, 2 hr) [Reference Units/mL] | Interferon induction in mice (interferon [2]; oral 3 mg/kg, 4 hr) | Interferon induction in mice (interferon [2]; oral 10 mg/kg, 1 hr) [Reference Units/mL] | Interferon induction in mice (interferon [2]; oral 10 mg/kg, 2 hr) [Reference Units/mL] | Interferon induction in mice (interferon [2]; oral 10 mg/kg, 4 hr) | Interferon induction in mice (interferon [2]; oral 0.3 mg/kg, 1 hr) [Reference Units/mL] | Interferon induction in mice (interferon [2]; oral 0.3 mg/kg, 2 hr) [Reference Units/mL] | Interferon induction in mice (interferon [2]; oral 0.3 mg/kg, 4 hr) [Reference Units/mL] | also measured
1 | CC(C)Cn1c(CN=[N+]=[N-])nc2c(N)nc3ccccc3c21 [Example 11, 2-Azidomethyl-1-(2-methylpropyl)-1H-imidazo-[4,5-c]quinolin-4-amine] | 330 α Reference Units/mL | 330 α Reference Units/mL | 570 α Reference Units/mL | 570 α Reference Units/mL | 570 α Reference Units/mL | 570 α Reference Units/mL | 280 | 1100 | 71 | 490 | 1900 | 30 Reference Units/mL | 1100 | 2500 | 280 Reference Units/mL | – | – | – | Interferon induction in mice (interferon [2]; oral 30 mg/kg, 1 hr): 850 Reference Units/mL; Interferon induction in mice (interferon [2]; oral 30 mg/kg, 2 hr): 2500 Reference Units/mL; Interferon induction in mice (interferon [2]; oral 30 mg/kg, 4 hr): 40 Reference Units/mL; Interferon-α induction (interferon-α [3]; dose concentration 0.10 μg/mL): 330 α Reference Units/mL; Interferon-α induction (interferon-α [3]; dose concentration 0.50 μg/mL): 330 α Reference Units/mL; Interferon-α induction (interferon-α [3]; dose concentration 1.0 μg/mL): 250 α Reference Units/mL; Interferon-α induction (interferon-α [3]; dose concentration 5.0 μg/mL): 140 α Reference Units/mL; Reference Units/mL (interferon in serum) (interferon [4]; 0.5 mg/kg): >12,800 Units/mL; Reference Units/mL (interferon in serum) (interferon [4]; 1 mg/kg): >12,800 Units/mL; % Lesion Inhibition ([5]; dose 0.1 mg/kg): 50%; % Lesion Inhibition ([5]; dose 0.5 mg/kg): 100%; % Lesion Inhibition ([5]; dose 1 mg/kg): 100%; Number of Colonies (MC-26 colon tumor cells [6]): 204 ± 28
2 | CCOCc1nc2c(N)nc3ccccc3c2n1CC(C)(C)O [Example 99, 4-Amino-α,α-dimethyl-2-ethoxymethyl-1H-imidazo[4,5-c]quinoline-1-ethanol] | 28 α Reference Units/mL | 316 α Reference Units/mL | 280 α Reference Units/mL | 790 α Reference Units/mL | 790 α Reference Units/mL | 630 α Reference Units/mL | 2200 | 5100 | 460 | 1600 | 750 | ˜220 Reference Units/mL | 2500 | 4600 | ˜220 Reference Units/mL | 1600 | 3500 | 390 | log reduction at 0.1 µg/mL [7]: 5; log reduction at 0.5 µg/mL [7]: 5; log reduction at 1 µg/mL [7]: 5; Number of Colonies (MC-26 colon tumor cells [8]; oral 1 mg/Kg on days 0-4): 29 ± 4; Number of Colonies (MC-26 colon tumor cells [8]; oral 3 mg/Kg on days 0-4): 17 ± 3
3 | CC(C)Cn1c(C(O)c2ccccc2)nc2c(N)nc3ccccc3c21 (stereo not drawn) [Example 48, 4-Amino-1-(2-methylpropyl)-α-phenyl-1H-imidazo[4,5-c]quinoline-2-methanol] | – | – | 3100 α Reference Units/mL | 840 α Reference Units/mL | 330 α Reference Units/mL | 1300 α Reference Units/mL | 790 | 940 | <260 | 1600 | 1600 | ˜510 Reference Units/mL | 2000 | 2000 | ˜540 Reference Units/mL | <260 | <260 | <260 | melting point: 125 to 140 °C
